Experimental data reported in patent US4260606A, “3-Methyleneazetidine derivatives” (A. H. Robins Company, Inc., priority 1979, dated 1981).
Values joined by “and” are separate entries in the source; they are usually repeats but may differ in a detail not shown here. Equal entries are not always repeated. Where two headings read alike, the source gives them in different places.

Test system: Tetrabenazine-Induced Ptosis
Test: Blockade of Tetrabenazine-Induced Ptosis in Mice (anti-tetrabenazine test)
Type: in vivo, mice (ICR-DUB strain)
Conditions: for ED50: Mus musculus, ip, read-out: ED50 (95% Confidence Limits), blockade of tetrabenazine-induced ptosis
Experimental: Antidepressant agents block many of the behavioral and physiological effects of tetrabenazine and reserpine, such as motor depression, hypothermia, and ptosis. […] Thirty minutes later the presence or absence of complete eyelid closure (ptosis) is assessed in each animal. For compounds which produced blockage of ptosis in all animals, and ED50 value is obtained using a minimum of three geometrically spaced doses with five mice/dose.

[1] = mice, IP, 30 minutes prior to tetrabenazine 32 mg/kg IP, ptosis assessed thirty minutes later, probit analysis, 95% confidence limits

With CN(C)CCCN1c2ccccc2CCc2ccccc21 [imipramine] the ED50 [1] was 0.3 mg/kg and the “ED50 (95% Confidence Limits), blockade of tetrabenazine-induced ptosis” value [1] was 0.4 (0.2-0.9) mg/kg IP and 0.5 (0.2-1.2) mg/kg IP.

With CCOc1ccccc1OCC1CNCCO1 (stereo not drawn) [viloxazine] the ED50 was 1.5 mg/kg.
